# Non-standard residues stand in square brackets, D forms with d. Residues, ends and D or L forms follow the SMILES beside them. ξ: configuration not given here. *: point of attachment. X3 = C[C@H](N*)C(=O)NS(C)(=O)=O; X4 = C[C@H](N*)C(=O)c1nccs1; boroAla = C[C@H](N*)B(O)O; ξA = CC(N)C(=O)O; CF3 = FC(F)(F)*; CH2Cl = ClC*
# Target: T1, Escherichia coli rhomboid GlpG (Escherichia coli, UniProt P09391)
# T1 construct: made in house; host or cells: E. coli C41(DE3)
# Test: in vitro GlpG inhibition assay with fluorogenic transmembrane peptide substrate (apparent IC50)
# Assay type: biochemical
# Settings: for IC50: 1 hr preincubation, 10 μM fluorogenic substrate KSp35, 0.05% (w/v) DDM; for fold decrease in potency compared with the parent compound 9: N-terminal truncation series
# Source text: To gain insight into these preferences and their possible interactions, we have generated tetra- and pentapeptidyl chloromethylketones (CMK or cmk henceforth) harboring amino acids preferred in positions P5 to P1 by the Escherichia coli rhomboid GlpG (GlpG henceforth), using the sequence background of the Providencia TatA ([Stevenson et al., 2007]), represented by the parent compound Ac-IATA-cmk. We measured the inhibitory properties of this series of compounds using a newly developed in vitro assay employing a fluorogenic transmembrane peptide substrate ([Ticha et al., 2017]) that faithfully represents a native rhomboid substrate.
# Figure 1 The Potency of Substrate-Derived Inhibitors Can be Improved by Modifying the Amino acid Sequence of the P5 to P1 Region (A) The parent inhibitor Ac-IATA-cmk was modified by introducing strongly preferred amino acids ([Zoll et al., 2014]) into the P4, P3, P2, and P5 positions to yield the listed compounds. Their apparent IC50 values were measured with 1 hr preincubation using 10 μM fluorogenic substrate KSp35 and 0.05% (w/v) DDM. The reported values are best-fit means with SD representative of 2–3 measurements. (B) The sequence-optimized peptidyl chloromethylketones were soaked into the native crystals of GlpG and structures of the complexes were solved by X-ray diffraction (for statistics, see Table S1). […] Note that in the Ac-RVRHA-cmk structure (right), the side chain of the Arg residue in the P5 position of the inhibitor has not been modeled due to poor or missing electron density peaks. (C) Interactions of RVRHA-cmk with GlpG were analyzed by Ligplot+ ([Laskowski and Swindells, 2011]). Ligands are shown as thick sticks with carbons in green, proteins as thin sticks with carbons in gray, hydrogen bonds as yellow dashed lines, and amino acids involved in van der Waals contacts are highlighted as transparent surfaces. The inhibitor forms covalent bonds with S201 and H254 via the chloromethylketone warhead, and it hydrogen bonds with the backbone of residues 196–198 from the L3 loop and residues 248–250 from the L5 loop. van der Waals contacts with the inhibitor are formed by the residues from the L3 loop of GlpG, by S193 and Q189 from TMD3, and by F146 and M120 from the L1 loop that pack against the Val side chain of the P4 position of the inhibitor, as observed previously ([Zoll et al., 2014]). (D) The conformations of peptide inhibitors bound to the active site of GlpG were compared by performing structural alignment of the complexes of VRHAcmk (PDB: 5MT7), RVRHAcmk (PDB: 5MT8), IATAcmk (PDB: 4QO2), and VRMAcho (PDB: 5F5B) in PyMOL ([Schrodinger, 2012]). […] The backbone of the ligands in all complexes has virtually identical conformation with the exception of the distortion of the oxyanion by the chloromethylketone, and the biggest differences are found in the conformation of the P2 side chain, which is not surprising, because almost any side chain can be accommodated in this position ([Zoll et al., 2014]). TEXT PRINTED IN THE PICTURE: (A) AcIATAcmk: IC50 (μM): 213 | (A) AcVATAcmk: IC50 (μM): 450 | (A) AcIAHAcmk: IC50 (μM): 200 | (A) AcIRTAcmk: IC50 (μM): 84 | (A) AcVRHAcmk: IC50 (μM): 27 | (A) AcRVRHAcmk: IC50 (μM): 8
# Figure 2 A Screen of Electrophilic Warheads for the Inhibition of Rhomboid Proteases The optimized parent sequence Ac-RVRHA was linked to electrophilic warheads commonly used for targeting serine proteases (reviewed in [Hedstrom, 2002], [Walker and Lynas, 2001]). The apparent IC50 values of the compounds were measured in 0.05% DDM using 10 μM substrate KSp35 ([Ticha et al., 2017]) with 1 hr preincubation. Given are the mean values of 2–3 measurements. […]
# T1 sequence (P09391 whole entry): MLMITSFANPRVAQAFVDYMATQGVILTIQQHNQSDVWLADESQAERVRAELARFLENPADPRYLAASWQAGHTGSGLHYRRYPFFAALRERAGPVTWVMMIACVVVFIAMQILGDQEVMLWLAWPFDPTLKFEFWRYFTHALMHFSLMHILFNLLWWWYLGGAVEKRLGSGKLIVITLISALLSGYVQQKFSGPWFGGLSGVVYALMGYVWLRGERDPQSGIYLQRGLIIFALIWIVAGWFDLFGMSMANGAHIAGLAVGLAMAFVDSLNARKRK
Compound,IC50 [µM],fold less potent than the peptidyl boronate (ratio of apparent IC50 values),fold decrease in potency compared with the parent compound 9 (ratio of apparent IC50 values)
"CC[C@H](C)[C@H](NC(C)=O)C(=O)N[C@@H](C)C(=O)N[C@H](C(=O)N[C@@H](C)C(=O)CCl)[C@@H](C)O [AcIATAcmk, reference compound] (Ac-IATA-CH2Cl)",213,–,–
"Ac-RVRHA-NH2 [compound 1, AcRVRHA-CONH2]",203,about 25 fold,–
CC(=O)N[C@@H](Cc1c[nH]cn1)C(=O)N[C@@H](C)C(=O)C(=O)NCCc1ccccc1 [compound 14],~65,–,~150 fold
"CC(=O)N[C@@H](CCCNC(=N)N)C(=O)N[C@@H](Cc1c[nH]cn1)C(=O)N[C@@H](C)C(=O)C(=O)NCCc1ccccc1 [compound 13, Ac-RHA-CONH-phenylethyl]",9,–,~20 fold
CC(=O)N[C@H](C(=O)N[C@@H](C)C(=O)N[C@H](C(=O)N[C@@H](C)C(=O)CCl)[C@@H](C)O)C(C)C [AcVATAcmk] (Ac-VATA-CH2Cl),450,–,–
CC(=O)N[C@@H](CCCNC(=N)N)C(=O)N[C@H](C(=O)N[C@@H](CCCNC(=N)N)C(=O)N[C@@H](Cc1c[nH]cn1)C(=O)N[C@@H](C)C(=O)CCl)C(C)C [AcRVRHAcmk] (Ac-RVRHA-CH2Cl),8,–,–
"CC(=O)N[C@@H](CCCNC(=N)N)C(=O)N[C@H](C(=O)N[C@@H](CCCNC(=N)N)C(=O)N[C@@H](Cc1c[nH]cn1)C(=O)NC(C)C(=O)C(F)(F)F)C(C)C (stereo partly shown) [trifluoromethylketone, AcRVRHA-trifluoromethylketone] (Ac-RVRH[ξA]-CF3)",> 1000,–,–
CC[C@H](C)[C@H](NC(C)=O)C(=O)N[C@@H](CCCNC(=N)N)C(=O)N[C@H](C(=O)N[C@@H](C)C(=O)CCl)[C@@H](C)O [AcIRTAcmk] (Ac-IRTA-CH2Cl),84,–,–
CC[C@H](C)[C@H](NC(C)=O)C(=O)N[C@@H](C)C(=O)N[C@@H](Cc1c[nH]cn1)C(=O)N[C@@H](C)C(=O)CCl [AcIAHAcmk] (Ac-IAHA-CH2Cl),200,–,–
CC(=O)N[C@H](C(=O)N[C@@H](CCCNC(=N)N)C(=O)N[C@@H](Cc1c[nH]cn1)C(=O)N[C@@H](C)C(=O)C(=O)NCCc1ccccc1)C(C)C [compound 12],0.55,–,–
"CC(=O)N[C@@H](CCCNC(=N)N)C(=O)N[C@H](C(=O)N[C@@H](CCCNC(=N)N)C(=O)N[C@@H](Cc1c[nH]cn1)C(=O)N[C@@H](C)B(O)O)C(C)C [boronate, AcRVRHA-boronate] (Ac-RVRH-boroAla)",8,–,–
"CC(=O)N[C@@H](C)C(=O)C(=O)NCCc1ccccc1 [compound 15, Ac-A-CONH-phenylethyl]",> 1000,–,"~2,250 fold"
"CC(=O)N[C@@H](CCCNC(=N)N)C(=O)N[C@H](C(=O)N[C@@H](CCCNC(=N)N)C(=O)N[C@@H](Cc1c[nH]cn1)C(=O)N[C@@H](C)C(=O)NS(C)(=O)=O)C(C)C [acylsulfonamide, AcRVRHA-acylsulfonamide] (Ac-RVRH-X3)",> 1000,–,–
"CC(=O)N[C@@H](CCCNC(=N)N)C(=O)N[C@H](C(=O)N[C@@H](CCCNC(=N)N)C(=O)N[C@@H](Cc1c[nH]cn1)C(=O)N[C@@H](C)C(=O)c1nccs1)C(C)C [thiazolylketone, AcRVRHA-thiazolylketone] (Ac-RVRH-X4)",> 1000,–,–
CC(=O)N[C@H](C(=O)N[C@@H](CCCNC(=N)N)C(=O)N[C@@H](Cc1c[nH]cn1)C(=O)N[C@@H](C)C(=O)CCl)C(C)C [AcVRHAcmk] (Ac-VRHA-CH2Cl),27,–,–
